# Results published in the METLIN SMRT retention time set (Domingo-Almenara et al. 2019).
# Assay: gradient 5% acetonitrile 3 min, to 50% in 2 min, to 85% in 15 min, held 3 min, 100 µL/min
# Settings: column: Zorbax Extend-C18 2.1 x 50 mm; eluents: water / acetonitrile, 0.1% formic acid
# Summary of the method: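 Retention times come from adduct peaks that were picked computationally and then checked by hand. The standards, pure and pooled in mixtures of ~100 molecules, were run on a Zorbax Extend-C18 column (2.1 × 50 mm, 1.8 μm) at 100 μL/min with water and acetonitrile, each with 0.1% formic acid. Detection was by quadrupole time-of-flight mass spectrometry in positive and negative ionization mode, with a dead volume of 40 μL and a dwell volume of 900 μL.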
row,Structure (SMILES),RP-LC retention time
1,Nc1ccc2c(c1)S(=O)(=O)c1cc(N)ccc1-2,635 s
2,Cc1ccc(C)c(-c2coc(-c3ccc(NC(=O)NCCc4ccccc4)cc3)n2)c1,1240 s
3,CCn1cc(C(=O)Nc2ccc(C)c(F)c2)c2cccnc21,920 s
4,COc1ccc(OC)c(COCC(O)CN2CCN(Cc3ccccc3)CC2)c1 (centres undefined),557 s
5,Nc1nc(N)c(-c2cccc(C(F)(F)F)c2)c(Cc2cccc(C(F)(F)F)c2)n1,741 s
6,COC(=O)c1ccc(C(=O)OC)c(NC(=O)N2CCC(CN3CCC(C)CC3)CC2)c1,678 s
7,O=C(COc1ccc(Cl)cc1Cl)Nc1nc(-c2ccccc2)cs1,1190 s
8,Cc1c(F)cccc1NC(=O)N1CCN(C2=CC3=NC(C)CN3C=N2)CC1 (centres undefined),649 s
9,O=C(Cn1cccc1-c1nc(-c2ccccc2)cs1)NCc1ccco1,1030 s
10,CC(C)CCNC(=O)C1(C)Cn2nc(C(=O)NCc3ccc(Cl)cc3)cc2C(=O)N1C (centres undefined),822 s
11,CCOC(=O)C1CCN(C(=O)CCc2nc(-c3ccc(N4CCCC4)cc3)no2)CC1,1030 s
12,CC1=C(c2ccc(F)cc2)S(=O)(=O)N=C1N1CCCN(C(=O)c2sccc2C)CC1,830 s
13,CC(C)c1nncn1C1CCN(S(=O)(=O)c2cccc(Cl)c2)CC1,767 s
14,CCn1c(=O)c2c(nc3n2CC(C)CN3c2ccc(Br)cc2)n(C)c1=O (centres undefined),954 s
15,COc1ccc2[nH]cc(CCNC(=O)CCc3c(C)nc4c(c3C)c(=O)n(C)c(=O)n4C)c2c1,788 s
16,O=C(C1CCN(S(=O)(=O)c2cc(-c3noc(C4CCC4)n3)cs2)CC1)N1CCc2ccccc21,1150 s
17,CCCc1ccc(S(=O)(=O)N2CCCC2c2nc(-c3cccc(C)c3)no2)cc1 (centres undefined),1330 s
18,O=C([C@@H]1C[C@H](F)CN1C(=O)c1cc(F)ccc1F)N1CCCCC1,700 s
19,CCCNC(=O)N1CCCN(C2CCN(Cc3ccccc3)C2=O)CC1 (centres undefined),535 s
20,CCCNc1nc(N)c2ccccc2n1,573 s
21,CCc1nnc([C@@H]2CC(F)(F)CN2C(=O)Cn2nc(C)cc2C)o1,612 s
22,CCN1C(=O)c2c(C(=O)NCc3ccc(Cl)cc3)ncn2CC1(C)C(=O)NC1CCCC1 (centres undefined),798 s

row,Structure (SMILES),RP-LC retention time
1,COCCc1noc(-c2cnc3nc(C)ccc3c2NCc2cccc(Cl)c2)n1,711 s
2,CN(C)CCNC(=O)C1CCN(S(=O)(=O)c2ccc3c(c2)sc(=O)n3C)CC1,606 s
3,Cc1oc2ccn(Cc3ccc(F)cc3)c(=O)c2c1C(=O)NCc1cccs1,1030 s
4,COc1ccccc1C(=O)NCc1ccc2c(c1)ncn2C(C)C,603 s
5,O=C1NC2(CCN(C(=O)Nc3ccccc3Cl)CC2)Oc2ccccc21,765 s
6,CCCn1cc(C(=O)NC2CCCC2)c2cccnc21,794 s
7,Cc1ccc(NC(=O)N2CCC(N3CCN(Cc4ccccn4)C(=O)C3=O)CC2)cc1,604 s
8,CCOC(=O)c1[nH]c(C)c(CCC(=O)N2CCCC(C(=O)NC3CCCCC3)C2)c1C (centres undefined),822 s
9,CC(C)n1nnc2ccc(-c3noc(-c4ccc(F)cc4)n3)cc21,1140 s
10,Cc1nn(-c2ccccc2)c2ccn(CC(=O)N3CCN(c4ccccc4Cl)CC3)c(=O)c12,642 s
11,COC(=O)c1cc(OCC(=O)NC2CCCC2)c2cc(OC)ccc2n1,739 s
12,CC(=O)c1ccc(NC(=O)N2C[C@@H]3C[C@H](NC(=O)c4cccnc4)[C@H]2C3)cc1,627 s
13,CCN1CCCCc2cc(C(=O)NCCC3CCN(C(C)C)CC3)sc21,680 s
14,Cc1cccc(-c2nc3nc(C)cc(N(CCO)CCO)n3n2)c1,615 s
15,O=C(NCCCN1CCCC1)c1nnc(-c2ccc(S(=O)(=O)N3CCCC3)cc2)o1,603 s
16,CSc1cccc(NC(=O)C2CCN(c3cnc4nc(C)c(C)nc4c3)CC2)c1,758 s
17,Cc1cc(C(=O)N2CCN(C(=O)C3CC3c3cccs3)CC2)c(C)o1 (centres undefined),767 s
18,Cc1ccc(NC(=O)N2CCc3nc(-c4ccc(F)cc4)ncc3C2)cc1C,1020 s
19,CCN1CCN(c2c(S(=O)(=O)c3ccccc3)cnc3cc(OC)c(OC)cc23)CC1,623 s
20,CCOCCOC1CCN(S(=O)(=O)Cc2ccccc2)CC1,856 s
21,COc1ccc2c(c1)CC(NC(=O)NCCCN1CCN(Cc3ccccc3)CC1)CO2 (centres undefined),634 s
22,CC1CCN(S(=O)(=O)c2ccc3c(c2)CCCC(=O)N3CC(=O)NC2CCCCC2)CC1,987 s

row,Structure (SMILES),RP-LC retention time
1,CCN(C(=O)C1CCCN1S(=O)(=O)c1cc2c(cc1C)NC(=O)C(C)O2)c1cccc(C)c1 (centres undefined),868 s
2,CC1(C(=O)NCc2ccccc2)CN(S(C)(=O)=O)CC(=O)N1CCc1ccc(Cl)cc1 (centres undefined),874 s
3,COc1ccc(NC(=O)N2CCC(N3C[C@H]4C[C@H](C3)[C@H]3CCCC(=O)N3C4)CC2)cc1,573 s
4,Brc1ccc(-c2ccc(CNCc3cccnc3)o2)c(Br)c1,686 s
5,Cc1ccc2c(Nc3ccc(F)c(C#N)c3)c(C(=O)N3CCOCC3)cnc2n1,598 s
6,Cc1ccc2[nH]c(=O)c(CCC(=O)NCc3ccccn3)cc2c1,596 s
7,CCCn1ccc2sc(C)c(C(=O)NCc3ccc(OC)c(OC)c3)c2c1=O,780 s
8,CCOC(=O)c1[nH]c(C)c(CCC(=O)N2CCC(C(=O)NCCN3CCCCC3)CC2)c1C,590 s
9,CCC(=O)N1CCN(c2nc3c(s2)CC(C(=O)Nc2ccc(Cl)c(C)c2)CC3)CC1 (centres undefined),607 s
10,O=C(Cn1ncc2c(N3CCN(c4ccccn4)CC3)ncnc21)Nc1ccc(Cl)cn1,616 s
11,CCCN(CCC)CCNC(=O)C1CCC(=O)N(c2ccc(OC)cc2)C1c1ccc(F)cc1 (centres undefined),649 s
12,CCc1nn2c(CNS(=O)(=O)c3ccccc3C)c(-c3ccccc3)nc2s1,921 s
13,COCCCN(Cc1ccco1)c1nc(-c2ccc(OC)cc2)nc2ccccc12,823 s
14,Cc1nc(-c2csc(S(=O)(=O)N3CCC(C(=O)Nc4ccc(Cl)cc4F)CC3)c2)no1,990 s
15,O=S(=O)(c1ccc2nc(N3CCN(c4ccc(F)cc4)CC3)ccc2c1)N1CCCCC1,1050 s
16,COc1cc(NC(=O)[C@@H]2[C@H](c3cc(OC)c(OC)c(OC)c3)c3cc4c(cc3[C@H](O)[C@H]2CO)OCO4)cc(OC)c1,767 s
17,CCc1noc(C2CCCCN2Cc2nc(Cc3ccccc3)no2)n1 (centres undefined),958 s
18,O=c1c2ccccc2c(-c2nc(-c3cccnc3)no2)cn1-c1ccc(F)cc1,1050 s
19,COC(=O)c1ccc(NC(=O)N2CCCC2c2ccc(F)cc2)cc1 (centres undefined),919 s
20,COc1ccc(S(=O)(=O)N2CCCC(C(=O)Nc3ccc4c(c3)OCO4)C2)cc1Cl (centres undefined),941 s
